Assays:
[1] = tested on: mice with paclitaxel-induced neuropathic pain (CIPN); assay: von Frey paw withdrawal threshold (mechanical allodynia), paclitaxel-induced CIPN / central sensitization, treatment of established pain, topical test compounds; format: in vivo, mouse
Protocol: Paw withdrawn, licking or shaking were considered positive responses.
(§1) The first doses were administered 5 days after the last administration of paclitaxel (i.e., at day 0).
The PWT test was performed prior to the administration of paclitaxel (day −8) to establish the threshold in mice without neuropathic pain associated with CIPN (the value shown is an average of the PWT in all groups at day −8).
Pain associated with CIPN was established in line with the experiments disclosed herein. Mice were treated with naproxen 2.4% (equimolar to PN 5%), aspirin 1.7% (equimolar to PA2 5%); or ibuprofen 2.5% (equimolar to PI 5%) or vehicle applied topically to both hind paws 3×/day for 14 days.
CIPN was induced in mice with chemotherapeutic agents using established protocols (Carozzi et al, 2010; Currie et al, 2019; Eldridge et al, 2020).
The first doses were administered 1 day after the last administration of paclitaxel (i.e., at day 0).
as §1
The PWT test was performed on day 21, at the end of the experiment, but was also additionally determined on day 14 for LXIX.

[2] = tested on: mice with paclitaxel-induced CIPN; assay: von Frey PWT, paclitaxel CIPN model, orally administered compounds; format: in vivo, mouse; details: mouse, in vivo
Source text: CIPN was induced in mice with chemotherapeutic agents using established protocols (Carozzi et al, 2010; Currie et al, 2019; Eldridge et al, 2020). […] This dosing regimen of paclitaxel produces pain associated with CIPN with time courses that are similar to those of pain after paclitaxel administration in cancer patients.
Group 1: naïve mice (i.e. no paclitaxel, n=8) • 2. Group 2: paclitaxel only (n=8) • 3. Group 3: paclitaxel plus vehicle (n=8) • 4. […] Group 5: paclitaxel pluse sulindac (n=8)
The PWT test was performed on day 7.
Phospho-naproxen (PN) and naproxen were given by oral gavage, three times a day for 7 days. Their doses were as follows: PN, 65 mg/kg; naproxen, 35 mg/kg (equimolar to PN). The response of mechanical allodynia to phospho-naproxen (PN) and naproxen was tested on day 7.
(§2) This dosing regimen of paclitaxel produces pain associated with CIPN with time courses that are similar to those of pain after paclitaxel administration in cancer patients.
Phospho-ibuprofen (PI) (Formula III), phospho-glycerol-ibuprofen (PGI) (Formula LXXI), phospho-ibuprofen-amide (PIA) (Formula XI), and ibuprofen were given by oral gavage, three times a day for 6 days. Their doses were as follows: ibuprofen, 40 mg/kg; PI, 80 mg/kg; PIA, 80 mg/kg; all three were equimolar.
The response of mechanical allodynia to these compounds was tested on day 6, using the PWT test.
as §2
NO-sulindac (Formula XLIV), HS-sulindac (Formula XXXIV), platinum-sulindac (Formula LXVII), and NOSH-1 (Formula LIX) were given by oral gavage, three times a day throughout the study period. Their doses were all 100 mg/kg.
The response of mechanical allodynia to these compounds was tested on the days set out in the table below, via the PWT test.
LXIX was given by oral gavage, once a day for 14 days at a dose of 100 mg/kg.
The response of mechanical allodynia to these compounds was tested on day 14, via the PWT test.

[3] = tested on: mice with chronic constriction injury of the left sciatic nerve (PTPN); assay: von Frey PWT, chronic constriction injury (CCI) model of PTPN, topical compounds; format: in vivo, mouse; details: PI, PN 5% on left hind paw 3x/day 14 days; day 14
Protocol: The PWT test was performed following ligation, but prior to treatment to determine baseline values. The PWT was then further measured on day 14.

in vivo = details: Sprague-Dawley, rat, po, 95 mg/kg; for AUC(0-t): AUC0-24 h; for AUC(0-t) / Cmax / Tmax: single oral dose PN 95 mg/kg, rats
Protocol: Approximately 800 μL of blood were collected through cardiac puncture and immediately centrifuged.
Tissue samples were harvested using separate dissection instruments for each tissue sample to avoid cross contamination, and snap frozen. The levels of the test drug were determined by HPLC.
As previously described (Wen et al, 2019), each plasma sample was mixed with double volume of acetonitrile and centrifuged at 13,200 rpm for 15 min. Tissue samples were weighed, ddH2O (100-300 μL, depending on tissue weight) was added, and they were homogenized. Following addition of acetonitrile (twice the volume of the homogenate), the mixture was sonicated for 10 min, centrifuged at 13,200 rpm for 15 min, and analyzed by HPLC, as reported (Wen et al, 2019).
It was performed following a previously reported method (Xie et al, 2012). Briefly, the HPLC system consisted of a Waters Alliance 2695 Separations Module (Milford, MA, USA) equipped with a Waters 2998 photodiode array detector (328 nm) and a Thermo Hypersil BDS C18 column (150×4.6 mm, particle size 3 μm). The mobile phase consisted of a gradient between solvent A (formic acid, CH3CN, H2O (0.1:4.9:95 v/v/v)) and solvent B (CH3CN) at a flow rate of 1 mL·min−1 at 30° C. We applied gradient elution from 30 to 100% solvent B from 0-6 min, and it was maintained at 100% solvent B until 8 min.
The methods are identical to those used in Example 27.
A single dose of PN or PSA was given by oral gavage to groups of three Sprague-Dawley rats, which were euthanized and dissected according to the early example. The oral gavage solution of phosphonaproxen was prepared by dissolving in 10% DMSO and then suspending it in corn oil.

[4] = tested on: mice with NTG-induced migraine; assay: von Frey PWT, NTG-induced migraine model, oral or intraperitoneal compounds; format: in vivo, mouse; details: mouse, in vivo
Protocol: Phosphonaproxen (Formula VIII), and its parent compound, naproxen, were administered orally to each mouse group. All compounds were administered at equimolar doses. In particular, phosponaproxen was administered at 65 mg/kg, and naproxen was administered at 35 mg/kg, 30 minutes after NTG administration. The response of mechanical allodynia was tested 30 minutes after administration.

CCOP(=O)(OCC)OCCCCOC(=O)C(C)c1ccc2cc(OC)ccc2c1 (stereo not shown) [PN, phospho-naproxen]
Paw-withdrawal threshold, g Mean ± SEM, Day 0 ([1]; group value after paclitaxel, before study drug): 0.64 ± 0.06 g | Paw-withdrawal threshold, g Mean ± SEM, Day 14 ([1]; mouse, in vivo): 1.19 ± 0.09 g | PWT, g Mean ± SEM [2]: 0.66 ± 0.03 g | PWT, g Mean ± SEM [3]: 1.70 ± 0.12 g | half-life (in vivo): 540 min | AUC(0-t) (in vivo; blood): 1.7 µM·h | AUC(0-t) (in vivo; cerebellum): 3.1 µM·h | AUC(0-t) (in vivo; medulla): 6.9 µM·h | AUC(0-t) (in vivo; stomach): 4340 µM·h | AUC(0-t) (in vivo; vagus nerve): 63.1 µM·h | Cmax (in vivo; blood): 3.5 ± 1.2 µM | Cmax (in vivo; cerebellum): 1.2 ± 0.02 µM | Cmax (in vivo; medulla): 3.1 ± 0.6 µM | Cmax (in vivo; stomach): 717.2 ± 5 µM | Cmax (in vivo; vagus nerve): 24.2 ± 3.1 µM | Tmax (in vivo; blood): 60 min | Tmax (in vivo; cerebellum): 30 min | Tmax (in vivo; medulla): 30 min | Tmax (in vivo; stomach): 60 min | Tmax (in vivo; vagus nerve): 30 min | hydrolysis by carboxylesterases, times slower than PS (carboxylesterases): about 5 times | PWT, g Mean ± SEM [4]: 1.48 ± 0.22 g

Source: patent US20260102413A1, “TREATING PAIN ASSOCIATED WITH CENTRAL SENSITIZATION” (Medicon Pharmaceuticals, Inc., priority 2022, published 2026)
